Experimental data from patent US20250059174A1, “Pharmaceutical Compounds and Compositions as C-Kit Kinase Inhibitors” (Enanta Pharmaceuticals, Inc., priority 2023, published 2025).

Assays:
M-07e cells = assay: M-07e cellular assay (SCF-mediated cell proliferation); assay type: cell-based; settings: Homo sapiens, 72 hours, CellTiter Glo
How it was run: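 EC50 values reflect inhibition of SCF-driven proliferation, with SCF at EC90 and a 72 h compound exposure, measured as CellTiter Glo luminescence. Growth is scaled between no-SCF (0%) and untreated (100%) wells.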

[1] = target: Recombinant human c-KIT kinase (Homo sapiens (Human), UniProt P10721); assay: c-KIT kinase chemiluminescence assay (ADP-Glo); assay type: biochemical; settings: ATP 50 μM
How it was run: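 ADP formed by c-KIT on polyEY over 2 h at RT (after 30 min enzyme preincubation; Tris pH 7.5, MgCl2, BSA, DTT buffer) was detected by ADP-Glo luminescence. IC50 and Hill slope were fitted to control-normalized activity across compound concentrations.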

Chain of Recombinant human c-KIT kinase (P10721 26-976): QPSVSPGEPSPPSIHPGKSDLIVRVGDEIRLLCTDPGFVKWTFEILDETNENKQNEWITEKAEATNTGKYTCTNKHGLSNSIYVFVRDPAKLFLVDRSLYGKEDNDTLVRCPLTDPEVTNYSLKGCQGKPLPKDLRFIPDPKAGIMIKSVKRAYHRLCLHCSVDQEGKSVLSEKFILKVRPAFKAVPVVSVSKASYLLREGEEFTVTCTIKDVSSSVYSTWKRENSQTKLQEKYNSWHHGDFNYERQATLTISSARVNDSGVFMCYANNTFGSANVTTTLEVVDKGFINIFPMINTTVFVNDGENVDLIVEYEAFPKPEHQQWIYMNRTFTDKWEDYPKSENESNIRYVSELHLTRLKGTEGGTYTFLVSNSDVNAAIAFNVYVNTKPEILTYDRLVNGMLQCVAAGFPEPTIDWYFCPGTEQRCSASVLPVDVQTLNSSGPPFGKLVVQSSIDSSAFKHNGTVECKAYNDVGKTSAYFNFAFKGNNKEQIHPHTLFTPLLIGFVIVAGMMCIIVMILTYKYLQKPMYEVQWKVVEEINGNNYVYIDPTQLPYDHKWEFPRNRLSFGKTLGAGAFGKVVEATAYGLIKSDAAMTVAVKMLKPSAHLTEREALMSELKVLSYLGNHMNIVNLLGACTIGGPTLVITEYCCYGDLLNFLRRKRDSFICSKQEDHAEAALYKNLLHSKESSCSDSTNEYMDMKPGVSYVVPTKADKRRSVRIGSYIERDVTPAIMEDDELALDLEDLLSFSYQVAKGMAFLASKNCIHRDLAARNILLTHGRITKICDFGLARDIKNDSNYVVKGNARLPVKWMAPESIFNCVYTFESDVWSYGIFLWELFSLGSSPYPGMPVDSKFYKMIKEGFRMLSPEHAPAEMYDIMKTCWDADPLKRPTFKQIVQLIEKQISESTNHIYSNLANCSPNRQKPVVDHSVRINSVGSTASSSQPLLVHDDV

| IC50 [1] [nM] | SMILES | EC50 (M-07e cells) [nM] |
| --- | --- | --- |
| 100 to 1000 | COC(=O)N1CC(Cc2nc(-c3ccc(C)c(NC(=O)c4cnn5ccc(N6CC7(COC7)C6)cc45)c3)no2)C1 [Example 281-29] | 100 to 1000 |
| < 100 | Cc1ccc(-c2noc([C@H]3C[C@](O)(C(F)(F)F)C3)n2)cc1NC(=O)c1cnn2ccc(N3CC4(COC4)C3)cc12 [Example 281-31] | < 100 |
| 100 to 1000 | Cc1ccc(-c2noc(C3CN(C(=O)[C@H]4C[C@@H]4F)C3)n2)cc1NC(=O)c1cnn2ccc(N3CC4(COC4)C3)cc12 [Example 281-32] | 100 to 1000 |
| 100 to 1000 | Cc1ccc(-c2noc(C3CN(C(=O)C4(F)CC4)C3)n2)cc1NC(=O)c1cnn2ccc(N3CC4(COC4)C3)cc12 [Example 281-33] | 100 to 1000 |
| < 100 | Cc1ccc(-c2noc(C3CN(C(=O)C4(F)CC4)C3)n2)cc1NC(=O)c1cnn2ccc(N3CC4(C3)CC(O)(C(F)F)C4)cc12 [Example 281-35] | < 100 |
| < 100 | COC(=O)N1CC(c2nc(-c3ccc(C)c(NC(=O)c4cnn5ccc(N6CC7(COC7)C6)cc45)c3)no2)C1 [Example 281-43] | < 100 |
| 100 to 1000 | Cc1ccc(-c2noc(C3CN(C(=O)C4CC4)C3)n2)cc1NC(=O)c1cnn2ccc(N3CC4(COC4)C3)cc12 [Example 281-46] | 100 to 1000 |
| 100 to 1000 | Cc1ccc(-c2noc(C3CN(C(=O)C(F)(F)F)C3)n2)cc1NC(=O)c1cnn2ccc(N3CC4(COC4)C3)cc12 [Example 281-47] | > 1000 |
| > 1000 | Cc1ccc(-c2noc(C3CN(C(=O)C4CC(F)(F)C4)C3)n2)cc1NC(=O)c1cnn2ccc(N3CC4(COC4)C3)cc12 [Example 281-49] | > 1000 |
| 100 to 1000 | Cc1ccc(-c2noc(C3CN(C(=O)N(C)C4CC4)C3)n2)cc1NC(=O)c1cnn2ccc(N3CC4(COC4)C3)cc12 [Example 281-50] | 100 to 1000 |
| > 1000 | Cc1ccc(-c2noc(C3CN(C(=O)N(C)C)C3)n2)cc1NC(=O)c1cnn2ccc(N3CC4(COC4)C3)cc12 [Example 281-51] | > 1000 |
| > 1000 | Cc1ccc(-c2noc(C3CN(C(=O)NC4CC4)C3)n2)cc1NC(=O)c1cnn2ccc(N3CC4(COC4)C3)cc12 [Example 281-56] | > 1000 |
| > 1000 | Cc1ccc(-c2noc(C3CN(C(=O)N4CC(F)(F)C4)C3)n2)cc1NC(=O)c1cnn2ccc(N3CC4(COC4)C3)cc12 [Example 281-61] | 100 to 1000 |

Continued, compound first:

| SMILES | IC50 [1] [nM] | EC50 (M-07e cells) [nM] |
| --- | --- | --- |
| Cc1cc(F)c(-c2noc([C@H]3C[C@@H]3F)n2)cc1NC(=O)c1cnn2ccc(N3CC4(C3)CN(S(C)(=O)=O)C4)cc12 [Example 281-24] | < 100 | 100 to 1000 |
| Cc1ccc(-c2noc([C@H]3C[C@@H](C(F)(F)F)C3)n2)cc1NC(=O)c1cnn2ccc(N3CC4(COC4)C3)cc12 [Example 281-25] | < 100 | < 100 |
| O=C(Nc1cc(-c2noc([C@H]3C[C@@H]3F)n2)ccc1Cl)c1cnn2ccc(N3CC4(C3)CC(O)(C(F)F)C4)cc12 [Example 281-26] | 100 to 1000 | < 100 |
| O=C(Nc1cc(-c2noc([C@H]3C[C@@H](C(F)(F)F)C3)n2)ccc1Cl)c1cnn2ccc(N3CC4(C3)CC(O)(C(F)F)C4)cc12 [Example 281-27] | < 100 | < 100 |
| O=C(Nc1cc(-c2noc([C@H]3C[C@@H](OC(F)(F)F)C3)n2)ccc1Cl)c1cnn2ccc(N3CC4(C3)CC(O)(C(F)F)C4)cc12 [Example 281-28] | < 100 | < 100 |
| O=C(Nc1cc(-c2noc(C3CC(F)(F)C3)n2)ccc1Cl)c1cnn2ccc(N3CC4(C3)CC(O)(C(F)F)C4)cc12 [Example 281-30] | < 100 | < 100 |
| Cc1ccc(-c2noc(C3CN(C(=O)[C@H]4C[C@@H]4F)C3)n2)cc1NC(=O)c1cnn2ccc(N3CC4(C3)CC(O)(C(F)F)C4)cc12 [Example 281-34] | 100 to 1000 | 100 to 1000 |
| Cc1ncc(-c2noc([C@H]3C[C@@](C)(O)C3)n2)cc1NC(=O)c1cnn2ccc(N3CC4(C3)CC(O)(C(F)F)C4)cc12 [Example 281-36] | < 100 | 100 to 1000 |
| Cc1ncc(-c2noc([C@H]3C[C@](O)(C(F)F)C3)n2)cc1NC(=O)c1cnn2ccc(N3CC4(C3)CC(O)(C(F)F)C4)cc12 [Example 281-37] | 100 to 1000 | 100 to 1000 |
| Cc1ncc(-c2noc([C@H]3C[C@](O)(C(F)(F)F)C3)n2)cc1NC(=O)c1cnn2ccc(N3CC4(C3)CC(O)(C(F)F)C4)cc12 [Example 281-38] | 100 to 1000 | < 100 |
| Cc1ccc(-c2noc(C3CN(CC(F)(F)F)C3)n2)cc1NC(=O)c1cnn2ccc(N3CC4(C3)CC(O)(C(F)F)C4)cc12 [Example 281-39] | < 100 | < 100 |
| Cc1cc(F)c(-c2noc([C@H]3C[C@@H]3F)n2)cc1NC(=O)c1cnn2ccc(N3CC4(COC4)C3)cc12 [Example 281-42] | < 100 | < 100 |
| Cc1ncc(-c2noc([C@H]3C[C@@H](OC(F)(F)F)C3)n2)cc1NC(=O)c1cnn2ccc(N3CC4(C3)CC(O)(C(F)F)C4)cc12 [Example 281-45] | < 100 | < 100 |
| COC(=O)N1CC(c2nc(-c3cc(NC(=O)c4cnn5ccc(N6CC7(COC7)C6)cc45)c(C)cc3F)no2)C1 [Example 281-48] | < 100 | 100 to 1000 |
| COC(=O)N1CC(c2nc(-c3cc(NC(=O)c4cnn5ccc(N6CC7(C6)CC(O)(C(F)F)C7)cc45)c(C)cc3F)no2)C1 [Example 281-52] | < 100 | < 100 |
| COC(=O)N1CC(c2nc(-c3ccc(C)c(NC(=O)c4cnn5ccc(N6CC7(C6)CC(O)(C(F)F)C7)cc45)c3)no2)C1 [Example 281-53] | < 100 | < 100 |
| Cc1c(F)cc(-c2noc([C@H]3C[C@@H]3F)n2)cc1NC(=O)c1cnn2ccc(N3CC4(COC4)C3)cc12 [Example 281-54] | < 100 | < 100 |
| CC(=O)N1CCC(c2nc(-c3cnc(C)c(NC(=O)c4cnn5ccc(N6CC7(C6)CC(O)(C(F)F)C7)cc45)c3)no2)C1 (centres unmarked) [Example 281-55] | 100 to 1000 | > 1000 |
| Cc1cc(F)c(-c2noc([C@H]3C[C@@H](OC(F)(F)F)C3)n2)cc1NC(=O)c1cnn2ccc(N3CC4(COC4)C3)cc12 [Example 281-57] | < 100 | 100 to 1000 |
| Cc1cc(F)c(-c2noc([C@H]3C[C@@H]3C(F)F)n2)cc1NC(=O)c1cnn2ccc(N3CC4(COC4)C3)cc12 [Example 281-59] | < 100 | 100 to 1000 |
| Cc1ncc(-c2noc(C3C[C@@H]3C(F)F)n2)cc1NC(=O)c1cnn2ccc(N3CC4(COC4)C3)cc12 (some centres unmarked) [Example 281-60] | 100 to 1000 | 100 to 1000 |
| Cc1ncc(-c2noc([C@H]3C[C@@H](C(F)(F)F)C3)n2)cc1NC(=O)c1cnn2ccc(N3CC4(C3)CC(O)(C(F)F)C4)cc12 [Example 281-62] | < 100 | < 100 |
| Cc1ncc(-c2noc([C@H]3C[C@@H]3F)n2)cc1NC(=O)c1cnn2ccc(N3CC4(C3)CC(O)(C(F)F)C4)cc12 [Example 281-63] | 100 to 1000 | < 100 |
| Cc1ncc(-c2noc([C@H]3C[C@@H]3C(F)F)n2)cc1NC(=O)c1cnn2ccc(N3CC4(C3)CC(O)(C(F)F)C4)cc12 [Example 281-64] | < 100 | < 100 |
